Results: US10639284B2, “Immunomodulator compounds” (CHEMOCENTRYX, INC., priority 2016, dated 2020)

target: human PD-L1 / Human PD-1 (Homo sapiens (Human), UniProt Q9NZQ7); assay: Enzyme-Linked Immunosorbent Assay (ELISA), PD-1/PD-L1 binding; conditions: Table 2; plate-coated human PD-L1, biotinylated human PD-1; read-out: ELISA IC50
Procedure, shortened: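 Human PD-L1 coated at 1 μg/mL overnight at 4° C; samples diluted 1:5 and incubated with human PD-1 and biotin (0.3 μg/mL) for 1 h at 37° C. Bound PD-1 detected with streptavidin-HRP and TMB (20 min, 37° C), acid-stopped, absorbance at 450 nm.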

Chain of human PD-L1 / Human PD-1 (Q9NZQ7 19-239): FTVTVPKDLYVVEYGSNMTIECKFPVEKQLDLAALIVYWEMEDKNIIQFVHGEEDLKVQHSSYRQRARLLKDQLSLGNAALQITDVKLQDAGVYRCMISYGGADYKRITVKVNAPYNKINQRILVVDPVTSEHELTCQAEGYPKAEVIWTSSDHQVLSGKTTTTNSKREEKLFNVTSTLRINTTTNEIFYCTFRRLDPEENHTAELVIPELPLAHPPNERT

IC50, 500 to 20000 nM:
CC(C)OC(=O)[C@@H](NCc1cc(Cl)c(O[C@H]2CCc3c(-c4ccccc4F)cccc32)cc1OCc1cncc(C#N)c1)[C@@H](C)O [Example 2.169]
OC1CCN(Cc2cc(Cl)c(O[C@H]3CCc4c(-c5ccccc5F)cccc43)cc2OCc2cccnc2)CC1 [Example 2.116]
CCOc1cc(O[C@H]2CCc3c(-c4ccc5c(c4F)OCCO5)cccc32)c(Cl)cc1CN1CCC(O)CC1 [Example 2.059]
NC(=O)COc1cc(O[C@H]2CCc3c(-c4ccccc4F)cccc32)c(Cl)cc1CN[C@@H](CO)C(=O)O [Example 2.124]
CC(C)c1cccc(-c2cccc3c2CC[C@@H]3Oc2cc(OCc3cncc(C#N)c3)c(CN[C@@H](CO)C(=O)O)cc2Cl)c1 [Example 2.033]

IC50, 100 to 500 nM:
N#Cc1cncc(COc2cc(O[C@H]3CCc4c(-c5ccccc5F)cccc43)c(Cl)cc2CNCC(N)=O)c1 [Example 2.171]
CCOc1cc(O[C@H]2CCc3c(-c4ccccc4F)cccc32)c(Cl)cc1CN[C@H](C(=O)O)[C@@H](C)O [Example 2.158]
Nc1ncc(COc2cc(O[C@H]3CCc4c(-c5ccccc5F)cccc43)c(Cl)cc2CN2CCC(O)CC2)cn1 [Example 2.130]
N#Cc1cncc(COc2cc(O[C@H]3CCc4c(-c5ccccc5F)cccc43)c(Cl)cc2CNCc2nc(=O)o[nH]2)c1 [Example 2.150]
CC(C)(O)CNCc1cc(Cl)c(O[C@H]2CCc3c(-c4ccccc4F)cccc32)cc1OCc1cncc(C#N)c1 [Example 2.143]
C[C@@H](O)[C@H](NCc1cc(Cl)c(O[C@H]2CCc3c(-c4ccccc4F)cccc32)cc1OCc1cccnn1)C(=O)O [Example 2.133]

IC50, < 100 nM:
N#Cc1cncc(COc2cc(O[C@@H]3CCc4c(-c5ccccc5)cccc43)c(Cl)cc2CNC[C@@H](O)CC(=O)O)c1 [Example 1.008]
C[C@@](CO)(NCc1cc(Cl)c(O[C@H]2CCc3c(-c4ccccc4F)cccc32)cc1-c1cncc(C#N)c1)C(=O)O [Example 2.159]
COc1cccc(-c2cccc3c2CC[C@@H]3Oc2cc(OCc3cncc(C#N)c3)c(CN[C@@H](CO)C(=O)O)cc2Cl)c1F [Example 2.028]
N#Cc1cncc(-c2cc(O[C@H]3CCc4c(-c5ccccc5F)cccc43)c(Cl)cc2CN[C@@H](CO)C(=O)O)c1 [Example 2.115]
N#Cc1cncc(COc2cc(O[C@H]3CCc4c(-c5ccccc5F)cccc43)c(Cl)cc2CN2CCC(O)(C(=O)O)C2)c1 (stereo partly shown) [Example 2.022]
N#Cc1cncc(COc2cc(O[C@H]3CCc4c(-c5ccccc5F)cccc43)c(Cl)cc2CN2CC(O)C2)c1 [Example 2.037]
N#Cc1cncc(COc2cc(OC3CCc4c(-c5ccccc5)cccc43)c(Cl)cc2CNCCO)c1 (stereo not shown) [Example 1.004]
Cc1ccc(F)c(-c2cccc3c2CC[C@@H]3Oc2cc(OCc3cncc(C#N)c3)c(CN[C@@H](CO)C(=O)O)cc2Cl)c1 [Example 2.067]

same assay, conditions: Table 3; plate-coated human PD-L1, biotinylated human PD-1; read-out: ELISA IC50

IC50, 100 to 500 nM:
CCOC(=O)[C@](C)(CO)NCc1cc(Cl)c(O[C@H]2CCc3c(-c4ccc5c(c4F)OCCO5)cccc32)cc1OCc1cncc(C#N)c1 [Example 3.031]
CC(N[C@@H](CO)C(=O)O)c1cc(Cl)c(O[C@H]2CCc3c(C4=CCCC4)cccc32)cc1OCc1cncc(C#N)c1 (stereo partly shown) [Example 3.112]
CC(C)c1nccn1CCCNCc1cc(Cl)c(O[C@H]2CCc3c(-c4ccccc4F)cccc32)cc1OCc1cncc(C#N)c1 [Example 3.090]

IC50, < 100 nM:
CC(NCc1cc(Cl)c(O[C@H]2CCc3c(-c4ccccc4F)cccc32)cc1OCc1cncc(C#N)c1)C(=O)NC(CO)C(=O)O (stereo partly shown) [Example 3.095]
N#Cc1cncc(COc2cc(O[C@H]3CCc4c(-c5ccccc5F)cccc43)c(Cl)cc2CNC2CCOCC2)c1 [Example 3.072]
N#Cc1cncc(COc2cc(O[C@H]3CCc4c(-c5ccccc5F)cccc43)c(Cl)cc2CN[C@H]2CCCC[C@@H]2O)c1 [Example 3.021]
